Patent US4414388A, “1-Oxo-1H-thiazolo[3,2-a]pyrimidine-2-carboxamides” (Pfizer Inc., priority 1981, dated 1983)

Assays:
[1] = tested on: IgE-mediated passive cutaneous anaphylaxis (PCA); test: PCA test, intravenous, comparison with Intal, IgE-mediated permeability; format: in vivo, rat
Protocol: (§1) In the PCA test, normal animals are injected intradermally (i.d.) with antibodies contained in serum obtained from actively sensitized animals. The animals are then challenged intravenously with antigen mixed with a dye such as Evans' Blue. The increased capillary permeability caused by the antigen-antibody reaction causes the dye to leak from the site of the antibody injection. The test animals are then asphyxiated and the intensity of the reaction determined by measuring the diameter and intensity of the blue coloration on the inner surface of the animals' skin.
The ability of agents to interfere with PCA reactions is measured in male Charles River Wistar rats, 170-210 g. Reaginic antiserum, rich in IgE antibodies, is prepared according to Petillo et al., Int. Arch. […] Hyperimmune antiserum rich in IgG antibodies to hen egg albumin is prepared according to Orange et al., J. Exptl. […] Forty-eight hours prior to antigen challenge, the reaginic antiserum is injected intradermally (i.d.) into the shaved skin of a normal rat's back; 5 hours before challenge the hyperimmune antisera is similarly injected. […] The difference is expressed as percent blockage due to the compound employed.

[2] = tested on: urinary volume output; test: diuretic activity; format: in vivo; conditions: oral
Protocol: When given orally, it caused a dose-related increase in urinary volume output at doses in the range 0.3 to 5 mg/kg. […] These findings indicate that the dose-response range for diuretic activity is considerably higher than that for antiulcer effects and just below that for antiallergy effects (1 to 10 mg/kg).

[3] = tested on: glucose tolerance; test: glucose tolerance; format: in vivo, rat; conditions: 10, 30, or 100 mg/kg p.o. with glucose 1 g/kg p.o.
Excerpt: This effect may be due to a delayed absorption of glucose related to a possible effect on gastric emptying.

[4] = tested on: rats; test: toleration study in rats, 10 days oral; format: in vivo, rat
Protocol: Rats were given III orally by gavage at doses of 50, 150 and 300 mg/kg/day for 10 days.

[5] = tested on: bone marrow; test: chromosomal damage in bone marrow of mice; format: in vivo, mouse; conditions: single oral dose 40 mg/kg; 6, 12 or 24 hours
Protocol: Single oral doses of III, 40 mg/kg, were administered to groups of mice who were sacrificed 6, 12 or 24 hours later. […] From these findings, it is evident that III has no obvious mutagenic potential.

[6] = tested on: point mutations; test: Ames test in vitro; format: cell-based
[7] = plasma concentration / oral absorption in dogs; format: in vivo, dog
Protocol: This is supported by the observations of plasma concentrations of 3 to 7 μg/ml one hour after oral administration of III, 50 to 300 mg/kg.

[8] = tested on: passive cutaneous anaphylaxis (PCA); test: PCA test, oral activity in general; format: in vivo, rat
Protocol: as §1, with “The antiallergy property of the compounds of this invention is evaluated by the passive cutaneous anaphylaxis (PCA) test (Ovary, J. Immun., 81, 355, 1958). In” for “In”
The ability of agents to interfere with PCA reactions is measured in male Charles River Wistar rats, 170-210 g. Reaginic antiserum, rich in IgE antibodies, is prepared according to Petillo et al., Int. Arch. Allergy, 44, 309 (1973). Hyperimmune antiserum rich in IgG antibodies to hen egg albumin is prepared according to Orange et al., J. Exptl. Med., 127, 767 (1968). Forty-eight hours prior to antigen challenge, the reaginic antiserum is injected intradermally (i.d.) into the shaved skin of a normal rat's back; 5 hours before challenge the hyperimmune antisera is similarly injected. […] The difference is expressed as percent blockage due to the compound employed.

[9] = oral gavage 50, 150 and 300 mg/kg/day

## O=C(Nc1nnn[nH]1)c1cnc2sc3c(n2c1=O)CCCC3 [compound III, N-(5-tetrazolyl)-1-oxo-1H-cyclohexenothiazolo[3,2-a]pyrimidine-2-carboxamide]
[1]; intravenous
  intravenous activity in the PCA test, dose range: 0.03 to 1.0 mg/kg
[1]; rat, in vivo
  changes in cutaneous permeability induced by IgE-mediated PCA: blocks the changes in cutaneous permeability
[2]
  sodium and potassium excretion: an increase in sodium and potassium excretion was observed
  urinary concentrations of sodium and potassium ions: unchanged
[2]; 0.3 to 5 mg/kg
  maximum effect on urinary volume output: twofold increase in volume output
[3]
  effect on glucose tolerance: apparent dose-dependent improvement in glucose tolerance
[4]; highest dose (300 mg/kg/day)
  serum glutamic-pyruvic transaminase: slight increase
[4]; [9]
  changes in clinical chemistry (other than serum glutamic-pyruvic transaminase): no changes in clinical chemistry were observed
  pathological changes on gross and microscopic evaluation of liver, kidney, heart and lung: no resultant pathological changes
[5]
  chromosomal damage in bone marrow, single dose: did not reveal any chromosomal damage
[6]
  point mutations, Ames test: did not induce point mutations
[7]; oral suspensions or capsules
  oral absorption, dog: absorbed readily
[7]; plasma, dog, one hour, oral 50 to 300 mg/kg, suspensions or capsules, read-out: plasma concentration one hour after oral administration, dog
  concentration at 1 h: 9000 to 26000 ng/mL
[8]
  oral activity, in words: excellent oral activity
